Target: T1, h-11βHSD1 (Homo sapiens, UniProt P28845)
T1 construct: made in house
Test: 11βHSD1 enzyme assay (SPA)
Assay type: biochemical
Details: yeast extract with h-11βHSD1, 120 nM 3H-cortisone, 4 mM β-NADPH, 60 min at 30° C.
Method: Pharmacological Methods 11βHSD1 Enzyme Assay Materials
^3H-cortisone and anti-rabbit Ig coated scintillation proximity assay (SPA) beads were purchased from Amersham Pharmacia Biotech, β-NADPH was from Sigma and rabbit anti-cortisol antibodies were from Fitzgerald. An extract of yeast transformed with h-11βHSD1 (Hult et al., FEBS Lett, 441, 25 (1998)) was used as the source of enzyme. The test compounds were dissolved in DMSO (10 mM). All dilutions were performed in a buffer containing 50 mM TRIS-HCl (Sigma Chemical Co), 4 mM EDTA (Sigma Chemical Co), 0.1% BSA (Sigma Chemical Co), 0.01% Tween-20 (Sigma Chemical Co) and 0.005% bacitracin (Novo Nordisk A/S), pH=7.4. Optiplate 96 wells plates were supplied by Packard. The amount of ^3H-cortisol bound to the SPA beads was measured on TopCount NXT, Packard.
h-11βHSD1, 120 nM ^3H-cortisone, 4 mM β-NADPH, antibody (1:200), serial dilutions of test compound and SPA particles (2 mg/well) were added to the wells. The reaction was initiated by mixing the different components and was allowed to proceed under shaking for 60 min at 30° C. […] Data was analysed using GraphPad Prism software.

T1 sequence (P28845 whole entry): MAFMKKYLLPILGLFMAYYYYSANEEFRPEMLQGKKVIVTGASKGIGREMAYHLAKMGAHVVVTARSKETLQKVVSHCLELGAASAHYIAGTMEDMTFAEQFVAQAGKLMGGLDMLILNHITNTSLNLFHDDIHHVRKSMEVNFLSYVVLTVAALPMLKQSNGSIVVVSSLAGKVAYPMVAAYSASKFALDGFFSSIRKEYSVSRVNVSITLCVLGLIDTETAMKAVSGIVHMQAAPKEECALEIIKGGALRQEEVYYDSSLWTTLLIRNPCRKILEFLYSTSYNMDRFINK

| IC50 [µM] | Structure (SMILES) |
| --- | --- |
| 4.7 | Cc1cc(C(F)(F)F)n2nc(C(=O)N3CCCCC3)cc2n1 [Example 3, (5-methyl-7-trifluoromethyl-pyrazolo[1,5-a]pyrimidin-2-yl)-(piperidin-1-yl)methanone] |
| 0.34 | Cc1cc(-c2ccccc2)n2nc(C(=O)N(C)C3CCCCC3)cc2n1 [Example 4] |
